Assay results taken from US20230146455A1, “TREATMENT OF INFLAMMATORY DISEASES WITH PEPTIDES AND PHARMACEUTICAL COMPOSITIONS” (Yuyu Pharma, Inc., priority 2020, published 2023).
Where “and” joins values, the source holds several entries; their conditions need not be identical. Equal values may be shown once. Where a SMILES comes first, the peptide text is derived from it. [ ]: non-standard residue; d: D form. Hyp = O=C(O)[C@@H]1C[C@@H](O)CN1

Tested on: CCL4/MIP-1 beta
Test: Example 9 Luminex, LPS hPBMCs: CCL4/MIP-1 beta
Type: cell-based, human
Settings: for MFI (Bead name: CCL4/MIP-1 beta): dilution 10
Protocol: Treatment Human PBMCs were pretreated with YY-101, YDE-011 and YDE-043 or reference compound; Xiidra® at various concentration (ranging from 1 nM to 100 uM) for 2 h before stimulation. An equal volume of 0.5% DMSO was used as a vehicle control. Then, the cells were treated with LPS at 5 ug/ml. The supernatants from treated cells were harvested at 24 h and placed in a 96 well for Luminex cytokine & chemokine profiling using a Luminex 200 multiplex assay (Luminex; R&D system, USA).
The main study arm with triplicate wells per group in a 24-well plate: • 1. Blank • 2. PBMC: 0.5% DMSO • 3. PBMC+LPS (5 ug/ml) • 4. PBMC+YY-101 100 uM • 5. PBMC+YY-101 10 uM • 6. PBMC+YY-101 1 uM • 7. PBMC+YY-101 0.1 uM • 8. PBMC+YY-101 0.01 uM • 9. PBMC+LPS (5 ug/ml)+Xiidra®100 uM • 10. PBMC+LPS (5 ug/ml)+Xiidra® 10 uM • 11. PBMC+LPS (5 ug/ml)+Xiidra® 1 uM • 12. PBMC+LPS (5 ug/ml)+Xiidra®0.1 uM • 13. PBMC+LPS (5 ug/ml)+Xiidra®0.01 uM • 14. PBMC+LPS (5 ug/ml)+Xiidra®0.001 uM • 15. PBMC+LPS (5 ug/ml)+YY-101 100 uM • 16. PBMC+LPS (5 ug/ml)+YY-101 10 uM • 17. PBMC+LPS (5 ug/ml)+YY-101 1 uM • 18. PBMC+LPS (5 ug/ml)+YY-101 0.1 uM • 19. PBMC+LPS (5 ug/ml)+YY-101 0.01 uM • 20. PBMC+LPS (5 ug/ml)+YY-101 0.001 uM • 21. PBMC+LPS (5 ug/ml)+YDE-011 100 uM • 22. PBMC+LPS (5 ug/ml)+YDE-011 10 uM • 23. PBMC+LPS (5 ug/ml)+YDE-011 1 uM • 24. PBMC+LPS (5 ug/ml)+YDE-011 0.1 uM • 25. PBMC+LPS (5 ug/ml)+YDE-011 0.01 uM • 26. PBMC+LPS (5 ug/ml)+YDE-011 0.001 uM • 27. PBMC+LPS (5 ug/ml)+YDE-043 100 uM • 28. PBMC+LPS (5 ug/ml)+YDE-043 10 uM • 29. PBMC+LPS (5 ug/ml)+YDE-043 1 uM • 30. PBMC+LPS (5 ug/ml)+YDE-043 0.1 uM • 31. PBMC+LPS (5 ug/ml)+YDE-043 0.01 uM • 32. PBMC+LPS (5 ug/ml)+YDE-043 0.001 uM
Multiplex assay was used to measure 30 cytokines and chemokines. The 1:2, 1:10 and 1:200 diluted cell supernatant and serial dilution of the standard were dispensed into a 96 well plate at 50 ul/well. Then, the pre-mixed cocktail of antibody-coated magnetic beads was dispensed at 50 ul/well and incubated at room temperature for 2 h in a horizontal orbital microplate shaker at 800±500 rpm. The beads were washed using a magnetic device to prevent loss. The biotin-antibody was dispensed in 50 ul of each well and incubated at room temperature for 1 h in a shaker at 800±500 rpm. After washing, streptavidin-PE was added at 50 ul/well and incubated at room temperature for 30 min in a shaker under the same conditions. Finally, after washing, wash buffer (100 ul/well) was added to the plate and incubated in a shaker for 2 min. The Luminex™ 200 setting were set according to the manufacturer's protocol. The data was calculated with a standard five-parameter logistic nonlinear regression analysis of the data (xPonent software 4.2, USA). The levels of cytokine/chemokine are normalized to the live cell counts (1×10^5 cells/mL) and presented as concentrations per mL (pg/mL or ng/mL).

[1] = PBMC + LPS(5 ug/ml), test article 0.001 uM, Mean
[2] = PBMC + LPS(5 ug/ml), test article 0.001 uM, single replicates
[3] = PBMC + LPS(5 ug/ml), test article 0.01 uM, Mean
[4] = PBMC + LPS(5 ug/ml), test article 0.01 uM, single replicates
[5] = PBMC + LPS(5 ug/ml), test article 0.1 uM, Mean
[6] = PBMC + LPS(5 ug/ml), test article 0.1 uM, single replicates
[7] = PBMC + LPS(5 ug/ml), test article 1 uM, Mean
[8] = PBMC + LPS(5 ug/ml), test article 1 uM, single replicates
[9] = PBMC + LPS(5 ug/ml), test article 10 uM, Mean
[10] = PBMC + LPS(5 ug/ml), test article 10 uM, single replicates
[11] = PBMC + LPS(5 ug/ml), test article 100 uM, Mean
[12] = PBMC + LPS(5 ug/ml), test article 100 uM, single replicates
[13] = PBMC without LPS, test article 0.01 uM, Mean
[14] = PBMC without LPS, test article 0.01 uM, single replicates
[15] = PBMC without LPS, test article 0.1 uM, Mean
[16] = PBMC without LPS, test article 0.1 uM, single replicates
[17] = PBMC without LPS, test article 1 uM, Mean
[18] = PBMC without LPS, test article 1 uM, single replicates
[19] = PBMC without LPS, test article 10 uM, Mean
[20] = PBMC without LPS, test article 10 uM, single replicates
[21] = PBMC without LPS, test article 100 uM, Mean
[22] = PBMC without LPS, test article 100 uM, single replicates

CC(C)C[C@H](NC(=O)CNC(=O)[C@H](CC(=O)O)NC(=O)[C@H](CCC(N)=O)NC(=O)CNC(=O)[C@@H]1C[C@@H](O)CN1)C(=O)N[C@@H](C)C(=O)NCC(=O)N1CCC[C@H]1C(=O)N[C@@H](CCCCN)C(=O)O [YY-101] (H-[Hyp]GQDGLAGPK-OH; N-terminus and C-terminus assumed)
LPS-induced CCL4 (in words) (LPS 5 ug/mL 24 hrs, 100 uM to 1 nM): significantly reduced | Concentration (CCL4/MIP-1 beta) [1]: 13975.6 pg/mL | conc/live cell (CCL4/MIP-1 beta) [1]: 2183.3 pg/10^5 | MFI (Bead name: CCL4/MIP-1 beta) [1]: 515.8 | MFI (Bead name: CCL4/MIP-1 beta) [2]: 551.5 and 527.0 and 469.0 | Concentration (CCL4/MIP-1 beta) [2]: 14562.9 pg/mL and 14163.0 pg/mL and 13200.9 pg/mL | conc/live cell (CCL4/MIP-1 beta) [2]: 2554.9 pg/10^5 and 1994.8 pg/10^5 and 2000.1 pg/10^5 | Concentration (CCL4/MIP-1 beta) [3]: 15170.0 pg/mL | conc/live cell (CCL4/MIP-1 beta) [3]: 2461.1 pg/10^5 | MFI (Bead name: CCL4/MIP-1 beta) [3]: 589.2 | MFI (Bead name: CCL4/MIP-1 beta) [4]: 611.0 and 596.5 and 560.0 | Concentration (CCL4/MIP-1 beta) [4]: 15520.6 pg/mL and 15288.8 pg/mL and 14700.8 pg/mL | conc/live cell (CCL4/MIP-1 beta) [4]: 2425.1 pg/10^5 and 2548.1 pg/10^5 and 2410.0 pg/10^5 | Concentration (CCL4/MIP-1 beta) [5]: 15088.0 pg/mL | conc/live cell (CCL4/MIP-1 beta) [5]: 2590.9 pg/10^5 | MFI (Bead name: CCL4/MIP-1 beta) [5]: 584.0 | MFI (Bead name: CCL4/MIP-1 beta) [6]: 576.0 and 592.0 and 584.0 | Concentration (CCL4/MIP-1 beta) [6]: 14959.4 pg/mL and 15216.6 pg/mL and 15088.1 pg/mL | conc/live cell (CCL4/MIP-1 beta) [6]: 2412.8 pg/10^5 and 2926.3 pg/10^5 and 2433.6 pg/10^5 | Concentration (CCL4/MIP-1 beta) [7]: 14794.1 pg/mL | conc/live cell (CCL4/MIP-1 beta) [7]: 2273.3 pg/10^5 | MFI (Bead name: CCL4/MIP-1 beta) [7]: 565.8 | MFI (Bead name: CCL4/MIP-1 beta) [8]: 594.0 and 556.5 and 547.0 | Concentration (CCL4/MIP-1 beta) [8]: 15248.7 pg/mL and 14644.0 pg/mL and 14489.7 pg/mL | conc/live cell (CCL4/MIP-1 beta) [8]: 2420.4 pg/10^5 and 2062.5 pg/10^5 and 2337.0 pg/10^5 | Concentration (CCL4/MIP-1 beta) [9]: 15474.9 pg/mL | conc/live cell (CCL4/MIP-1 beta) [9]: 2351.1 pg/10^5 | MFI (Bead name: CCL4/MIP-1 beta) [9]: 608.3 | MFI (Bead name: CCL4/MIP-1 beta) [10]: 614.0 and 651.0 and 560.0 | Concentration (CCL4/MIP-1 beta) [10]: 15568.4 pg/mL and 16155.4 pg/mL and 14700.8 pg/mL | conc/live cell (CCL4/MIP-1 beta) [10]: 2594.7 pg/10^5 and 2524.3 pg/10^5 and 1934.3 pg/10^5 | Concentration (CCL4/MIP-1 beta) [11]: 13712.9 pg/mL | conc/live cell (CCL4/MIP-1 beta) [11]: 2374.0 pg/10^5 | MFI (Bead name: CCL4/MIP-1 beta) [11]: 499.8 | MFI (Bead name: CCL4/MIP-1 beta) [12]: 537.0 and 474.5 and 488.0 | Concentration (CCL4/MIP-1 beta) [12]: 14326.7 pg/mL and 13293.2 pg/mL and 13518.7 pg/mL | conc/live cell (CCL4/MIP-1 beta) [12]: 2274.1 pg/10^5 and 2144.1 pg/10^5 and 2703.7 pg/10^5 | conc/live cell (CCL4/MIP-1 beta) [13]: 0.0 pg/10^5 | MFI (Bead name: CCL4/MIP-1 beta) [13]: 0.0 | MFI (Bead name: CCL4/MIP-1 beta) [14]: 0.0 | conc/live cell (CCL4/MIP-1 beta) [14]: 0.0 pg/10^5 | conc/live cell (CCL4/MIP-1 beta) [15]: 0.0 pg/10^5 | MFI (Bead name: CCL4/MIP-1 beta) [15]: 0.0 | MFI (Bead name: CCL4/MIP-1 beta) [16]: 0.0 | conc/live cell (CCL4/MIP-1 beta) [16]: 0.0 pg/10^5 | conc/live cell (CCL4/MIP-1 beta) [17]: 0.0 pg/10^5 | MFI (Bead name: CCL4/MIP-1 beta) [17]: −0.8 | MFI (Bead name: CCL4/MIP-1 beta) [18]: −1.0 and −0.5 | conc/live cell (CCL4/MIP-1 beta) [18]: 0.0 pg/10^5 | Concentration (CCL4/MIP-1 beta) [19]: 1948.5 pg/mL | conc/live cell (CCL4/MIP-1 beta) [19]: 152.2 pg/10^5 | MFI (Bead name: CCL4/MIP-1 beta) [19]: 5.5 | MFI (Bead name: CCL4/MIP-1 beta) [20]: 10.0 and 1.0 | Concentration (CCL4/MIP-1 beta) [20]: 1948.5 pg/mL | conc/live cell (CCL4/MIP-1 beta) [20]: 304.4 pg/10^5 and 0.0 pg/10^5 | Concentration (CCL4/MIP-1 beta) [21]: 1360.7 pg/mL | conc/live cell (CCL4/MIP-1 beta) [21]: 207.4 pg/10^5 | MFI (Bead name: CCL4/MIP-1 beta) [21]: 6.5 | MFI (Bead name: CCL4/MIP-1 beta) [22]: 10.0 and 3.0 | Concentration (CCL4/MIP-1 beta) [22]: 1948.5 pg/mL and 772.9 pg/mL | conc/live cell (CCL4/MIP-1 beta) [22]: 304.4 pg/10^5 and 110.4 pg/10^5
